By Kd is commonly meant the constant that tells how readily two partners part at equilibrium.

Molecules are shown by their SMILES. Like-named read-outs stand apart in the source and are kept apart here. Numbered stars: 1 amine (or outer) side, 2 acyl side, 3 side chain; on linkers, the order of the positions; unused ones are H or OH. Square brackets hold non-standard residues; d marks the D form. Peptide text beside a SMILES is read from it. * marks the point of attachment. X3 = CC(=O)N[C@H]1[C@H](O[C@H]2[C@H](O)[C@@H](O)[C@H](O[C@H]3[C@@H](O)[C@@H](CO)O[C@@H](O[C@H]4[C@H](O)[C@@H](O)[C@H](O[C@H]5[C@@H](O)[C@@H](CO)O[C@@H](O[C@H]6[C@H](O)[C@@H](O)[C@H](O[C@H]7[C@@H](O)[C@@H](CO)O[C@@H](O[C@H]8[C@H](O)[C@@H](O)[C@H](O[C@H]9[C@@H](O)[C@@H](CO)O[C@@H](O[C@H]%10[C@@H](O)[C@@H](CO)O[C@@H](O[C@@H]%11CO[C@@H](OC[C@H](N[*:1])C(=O)[*:2])[C@H](O)[C@H]%11O)[C@@H]%10O)[C@@H]9O)O[C@@H]8C(=O)O)[C@@H]7NC(C)=O)O[C@@H]6C(=O)O)[C@@H]5NC(C)=O)O[C@@H]4C(=O)O)[C@@H]3NC(C)=O)O[C@@H]2C(=O)O)O[C@H](CO)[C@H](O)[C@@H]1O[C@@H]1O[C@H](C(=O)O)[C@@H](O)[C@H](O)[C@H]1O; X2 = CC(=O)N[C@H]1[C@H](O[C@H]2[C@H](O)[C@@H](O)[C@H](O[C@H]3[C@@H](O)[C@@H](CO)O[C@@H](O[C@H]4[C@@H](O)[C@@H](CO)O[C@@H](O[C@@H]5CO[C@@H](OC[C@H](N[*:1])C(=O)[*:2])[C@H](O)[C@H]5O)[C@@H]4O)[C@@H]3O)O[C@@H]2C(=O)O)O[C@H](CO)[C@H](OS(=O)(=O)O)[C@@H]1O[C@@H]1O[C@H](C(=O)O)[C@@H](O[C@@H]2O[C@H](CO)[C@H](O)[C@H](O[C@@H]3O[C@H](C(=O)O)[C@@H](O)[C@H](O)[C@H]3O)[C@H]2NC(C)=O)[C@H](O)[C@H]1O; X4 = O=C(O)[C@H]1O[C@@H](O[C@H]2[C@@H](O)[C@@H](CO)O[C@@H](O[C@H]3[C@@H](O)[C@@H](CO)O[C@@H](O[C@@H]4CO[C@@H](*)[C@H](O)[C@H]4O)[C@@H]3O)[C@@H]2O)[C@H](O)[C@@H](O)[C@@H]1O

These results are taken from PMC11772155, “Solid-Phase-Supported Chemoenzymatic Synthesis and Analysis of Chondroitin Sulfate Proteoglycan Glycopeptides” (Angewandte Chemie (International ed. in English), 2024).

The target of the experiment is T1, Human Neutrophil Cathepsin G (Homo sapiens, UniProt P08311).
T1 construct: Human Neutrophil Cathepsin G was purchased from Athens; purchased Athens Research & Technology, Inc. (Athens, Georgia)
T1 sequence (P08311 21-243 limits assumed): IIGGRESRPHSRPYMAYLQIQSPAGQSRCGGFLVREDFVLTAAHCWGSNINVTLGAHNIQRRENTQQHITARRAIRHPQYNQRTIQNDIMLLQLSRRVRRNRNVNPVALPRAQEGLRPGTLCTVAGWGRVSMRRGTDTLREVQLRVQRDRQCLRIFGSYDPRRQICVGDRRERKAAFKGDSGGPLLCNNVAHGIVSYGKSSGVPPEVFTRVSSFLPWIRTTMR
Nature of the experiment: BLI (biolayer interferometry) binding assay of immobilized biotinylated compounds with Cathepsin G. From the text:
With structurally defined glycopeptides in hand, we aim to better understand the structural features needed for bikunin glycopeptide binding. Cathepsin G (CatG), a neutrophil serine protease, plays a crucial role in regulating various physiological processes, including inflammation, digestion, smooth muscle contraction, and tissue remodeling.[64] While CatG has been reported to interact with CSPG, the structural requirement of CSPG binding has not been established.[25] To measure the binding affinity towards CatG, peptides 5 and glycopeptides 10, 18–21 were biotinylated and immobilized on streptavidin coated sensors for biolayer interferometry (BLI) studies. Biotinylated 50 kDa CS and CS-A were also immobilized on the sensors for comparison. […]
General procedure of glycopeptide biotinylation
To a solution of peptide or glycopeptide in DMSO/H 2O (1/1, 0.1 ml) was added NHS-LC-Biotin (4 equiv.) and diisoproylethylamine (pH ~ 8.5). The reaction was incubated at 37 °C for 2 h. Then the mixture was dried in vacuo and purified by HPLC.
General procedure for BLI binding assay
The binding assay was performed on the Octet K2 System (Pall ForteBio). The biotinylated compounds were incubated with streptavidin (SA) sensors for 2 min. The sensor was then balanced in the assay buffer (PBS containing 0.005% P20) and dipped into Cathepsin G solution in assay buffer at 2000 nM, 1000 nM, 500 nM, 250 nM concentrations.
After 5 min of association, the sensor was brought back to the previous assay buffer for a 5 min dissociation step. At the end of the assay, the sensor was regenerated in 2 M NaCl to remove the bound protein. Each measurement was repeated 3 times on the same sensor. The control assay was performed with another sensor loaded with a 2 mM biotin solution.
Figure S3. Binding of peptide and glycopeptides a) 5, b) 10 , c) 18 , d) 19 , e) 20 , f) 21 , g) commercially available biotinylated 50 kDa CS, and h) 50 kDa CS-A to neutrophil Cathepsin G as measured by BLI ( a-h respectively). The biotinylated compounds (50 nM) were immobilized on streptavidin coated biosensors, and human neutrophil Cathepsin G was captured on biosensors with four concentrations at 2000 nM, 1000 nM, 500 nM, 250 nM.
Fitting curves were shown in red lines. […]
On the technique in general: In BLI a coated tip is dipped into the sample, and binding shifts an interference pattern.

The mark [1] stands for this setting: biotinylated compounds immobilized on streptavidin sensors, Cathepsin G at 2000, 1000, 500, 250 nM in PBS containing 0.005% P20, read-out: KD (nM) with Cathepsin G.

Turning to `CC(C)C[C@H](NC(=O)[C@H](CCC(N)=O)NC(=O)CNC(=O)CNC(=O)CNC(=O)[C@H](CO[C@@H]1OC[C@@H](O[C@@H]2O[C@H](CO)[C@H](O)[C@H](O[C@@H]3O[C@H](CO)[C@H](O)[C@H](O[C@@H]4O[C@H](C(=O)O)[C@@H](O)[C@H](O)[C@H]4O)[C@H]3O)[C@H]2O)[C@H](O)[C@H]1O)NC(=O)CNC(=O)[C@H](CCC(=O)O)NC(=O)[C@H](CCC(=O)O)NC(=O)[C@H](CCC(=O)O)NC(=O)[C@H](CCC(N)=O)NC(=O)[C@@H]1CCCN1C(=O)[C@H](CC(C)C)NC(=O)[C@@H](NC(=O)[C@H](C)N)C(C)C)C(=O)N[C@H](C(=O)N[C@H](C(=O)N[C@@H](CCC(=O)O)C(=O)N[C@H](C(=O)N[C@H](C(=O)N[C@@H](CCCCN)C(=O)N[C@@H](CCCCN)C(=O)N[C@@H](CCC(=O)O)C(=O)N[C@@H](CC(=O)O)C(=O)N[C@@H](CO)C(=O)O)[C@@H](C)O)C(C)C)[C@@H](C)O)C(C)C` [Compound 10] (H-AVLPQEEEGS(X4)GGGQLVTEVTKKEDS-OH), the Kd under setting [1] turned out to be 650 ± 80 nM.

Turning to `CC(=O)N[C@H]1[C@H](O[C@H]2[C@H](O)[C@@H](O)[C@H](O[C@H]3[C@@H](O)[C@@H](CO)O[C@@H](O[C@H]4[C@H](O)[C@@H](O)[C@H](O[C@H]5[C@@H](O)[C@@H](CO)O[C@@H](O[C@H]6[C@H](O)[C@@H](O)[C@H](O[C@H]7[C@@H](O)[C@@H](CO)O[C@@H](O[C@H]8[C@H](O)[C@@H](O)[C@H](O[C@H]9[C@@H](O)[C@@H](CO)O[C@@H](O[C@H]%10[C@@H](O)[C@@H](CO)O[C@@H](O[C@@H]%11CO[C@@H](OC[C@H](NC(=O)CNC(=O)[C@H](CCC(=O)O)NC(=O)[C@H](CCC(=O)O)NC(=O)[C@H](CCC(=O)O)NC(=O)[C@H](CCC(N)=O)NC(=O)[C@@H]%12CCCN%12C(=O)[C@H](CC(C)C)NC(=O)[C@@H](NC(=O)[C@H](C)N)C(C)C)C(=O)NCC(=O)NCC(=O)NCC(=O)N[C@@H](CCC(N)=O)C(=O)N[C@@H](CC(C)C)C(=O)N[C@H](C(=O)N[C@H](C(=O)N[C@@H](CCC(=O)O)C(=O)N[C@H](C(=O)N[C@H](C(=O)N[C@@H](CCCCN)C(=O)N[C@@H](CCCCN)C(=O)N[C@@H](CCC(=O)O)C(=O)N[C@@H](CC(=O)O)C(=O)N[C@@H](CO)C(=O)O)[C@@H](C)O)C(C)C)[C@@H](C)O)C(C)C)[C@H](O)[C@H]%11O)[C@@H]%10O)[C@@H]9O)O[C@@H]8C(=O)O)[C@@H]7NC(C)=O)O[C@@H]6C(=O)O)[C@@H]5NC(C)=O)O[C@@H]4C(=O)O)[C@@H]3NC(C)=O)O[C@@H]2C(=O)O)O[C@H](CO)[C@H](O)[C@@H]1O[C@@H]1O[C@H](C(=O)O)[C@@H](O)[C@H](O)[C@H]1O` [Compound 18] (H-AVLPQEEEG[X3]GGGQLVTEVTKKEDS-OH; N-terminus and C-terminus assumed), the dissociation constant (Kd) under setting [1] turned out to be 490 ± 18 nM. For `CC(=O)N[C@H]1[C@H](O[C@H]2[C@H](O)[C@@H](O)[C@H](O[C@H]3[C@@H](O)[C@@H](CO)O[C@@H](O[C@H]4[C@@H](O)[C@@H](CO)O[C@@H](O[C@@H]5CO[C@@H](OC[C@H](NC(=O)CNC(=O)[C@H](CCC(=O)O)NC(=O)[C@H](CCC(=O)O)NC(=O)[C@H](CCC(=O)O)NC(=O)[C@H](CCC(N)=O)NC(=O)[C@@H]6CCCN6C(=O)[C@H](CC(C)C)NC(=O)[C@@H](NC(=O)[C@H](C)N)C(C)C)C(=O)NCC(=O)NCC(=O)NCC(=O)N[C@@H](CCC(N)=O)C(=O)N[C@@H](CC(C)C)C(=O)N[C@H](C(=O)N[C@H](C(=O)N[C@@H](CCC(=O)O)C(=O)N[C@H](C(=O)N[C@H](C(=O)N[C@@H](CCCCN)C(=O)N[C@@H](CCCCN)C(=O)N[C@@H](CCC(=O)O)C(=O)N[C@@H](CC(=O)O)C(=O)N[C@@H](CO)C(=O)O)[C@@H](C)O)C(C)C)[C@@H](C)O)C(C)C)[C@H](O)[C@H]5O)[C@@H]4O)[C@@H]3O)O[C@@H]2C(=O)O)O[C@H](CO)[C@H](OS(=O)(=O)O)[C@@H]1O[C@@H]1O[C@H](C(=O)O)[C@@H](O[C@@H]2O[C@H](CO)[C@H](O)[C@H](O[C@@H]3O[C@H](C(=O)O)[C@@H](O)[C@H](O)[C@H]3O)[C@H]2NC(C)=O)[C@H](O)[C@H]1O` [Compound 19] (H-AVLPQEEEG[X2]GGGQLVTEVTKKEDS-OH; N-terminus and C-terminus assumed), the Kd (read-out: KD (nM) with Cathepsin G, biotinylated compounds immobilized on streptavidin sensors, Cathepsin G at 2000, 1000, 500, 250 nM in PBS containing 0.005% P20) worked out at 49 ± 5 nM.
